Experimental findings from US20250188103A1, “HETEROCYCLIC GLP-1 AGONISTS” (Gasherbrum Bio, Inc., priority 2022, published 2025) are described below.

The assay deals with T1, GLP-1 Receptor (Homo sapiens, UniProt P43220).
T1 construct: HD Biosciences / HDB (Method 3); host or cells: CHO-K1 (Methods 1, 2) or HEK293/CRE-Luc (Method 3)
T1 sequence (P43220 24-463): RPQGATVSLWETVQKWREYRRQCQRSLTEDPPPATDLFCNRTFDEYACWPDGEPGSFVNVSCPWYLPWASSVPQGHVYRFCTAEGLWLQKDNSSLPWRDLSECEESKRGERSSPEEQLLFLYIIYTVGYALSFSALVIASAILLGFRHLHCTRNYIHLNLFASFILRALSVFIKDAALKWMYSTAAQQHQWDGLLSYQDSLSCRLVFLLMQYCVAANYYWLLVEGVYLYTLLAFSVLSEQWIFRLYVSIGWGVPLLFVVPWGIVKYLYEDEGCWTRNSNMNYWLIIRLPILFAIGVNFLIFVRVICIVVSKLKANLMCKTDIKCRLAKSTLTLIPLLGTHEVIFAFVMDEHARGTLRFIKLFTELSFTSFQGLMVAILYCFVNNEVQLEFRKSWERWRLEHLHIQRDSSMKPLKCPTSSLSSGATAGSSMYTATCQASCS
Put plainly: GLP-1R agonist cAMP stimulation assay. Type of assay: cell-based. The conditions noted are these: cells stably expressing the GLP-1 Receptor (method not given). Here is the method:
Activation of GLP-1 receptor is known to stimulate cyclic AMP (cAMP) production in cells which indicates primary coupling to the Gas subunit of the G protein heterotrimeric complex.
Method 1: To optimize functional activity directed toward Gas coupling, a CHO-K1 cell line developed by DiscoverX stably expressing the GLP-1 Receptor is used. Cells expressing GLP-1 receptor are plated in a 384-well microtiter plates and incubated overnight at 37° C. with 5% CO2 to allow the cells to attach and grow. Media is then aspirated from the cells and replaced with 15 μL Hanks Balanced Salt Solution (HBSS)/5 mM Hepes:0.5 mM IBMX 0.1% BSA (pH 7.4) [Stimulation Buffer]. […] previously generated compound sample stocks at 4× final concentration in Stimulation Buffer are then added to the cells and allowed to incubate at 37° C. for 30 or 60 minutes.
After incubation the assay signal is generated using a europium chelate-labeled cAMP tracer which competes with cAMP for binding sites on a cAMP-specific monoclonal antibody labeled with ULight™ dye. When antibodies are bound to the Eu-labeled cAMP tracer FRET transfer between the Eu chelate and ULight™ labeled antibodies is detected. Free cAMP produced from stimulated cells competes with the Eu-cAMP tracer for binding to the ULight™-mAb causing a decrease in the TR-FRET signal in a dose dependent manner.
The method for detection of cAMP using the Eu-chelate technology requires incubation with Eu-cAMP tracer solution+ULight™-anti-cAMP solution for one hour at room temperature. Microplates are read following signal generation with a PerkinElmer Envision instrument utilizing TR-FRET signal detection. Percentage activity is calculated using the following formula: […]
Method 2: To optimize functional activity directed toward Gas coupling, a CHO-K1 cell line developed by DiscoverX stably expressing the GLP-1 Receptor is used. Cells expressing GLP-1 receptor are plated in a 384-well microtiter plates and incubated overnight at 37° C. with 5% CO2 to allow the cells to attach and grow. Media is then aspirated from the cells and replaced with 15 μL 2:1 Hanks Balanced Salt Solution (HBSS)/10 mM Hepes: cAMP XS+Ab reagent. Five microliters (5 μL) of previously generated compound sample stocks at 4× final concentration in assay buffer are then added to the cells and allowed to incubate at 37° C. for 30 or 60 minutes.
After incubation the assay signal is generated using enzyme fragment complementation (EFC). In EFC, the enzyme B-galactosidase is split into two complementary portions (EA and ED). The fragment ED is fused to cAMP and in the assay format competes with endogenous cAMP for binding to a cAMP specific antibody. Activated B-Gal is formed when exogenous EA fragment binds to free ED-cAMP (not bound to cAMP specific antibody). Activated enzyme levels are detected through conversion of B-gal chemiluminescent substrate which generates a detectable luminescence signal and read on standard microtiter plate.
The methodology for detection of cAMP using EFC requires incubation with 20 μL of cAMP XS+ED/CL lysis cocktail for one hour followed by incubation with 20 μL cAMP XS+EA reagent for three hours at room temperature. Microplates are read following signal generation with a PerkinElmer Envision instrument utilizing chemiluminescent signal detection. Compound activity is analyzed using CBIS data analysis suite (ChemInnovation, CA). Percentage activity is calculated using the following formula: […]
Method 3: Activation of GLP-1 receptor is known to stimulate cyclic AMP (cAMP) production in cells which indicates primary coupling to the Gas subunit of the G protein heterotrimeric complex.
To optimize functional activity directed toward Gas coupling, a HEK293/CRE-Luc cell line developed by HDB stably expressing the GLP-1 Receptor was used. […]
As usually defined, the EC50 is the concentration needed to bring the measured effect to its halfway point. Turning to `CNc1cc(-n2ccn(-c3c4c(nn3-c3cc(C)c(F)c(C)c3)CCN(C(=O)c3cc5cc(C6CCOCC6)ccn5c3C3(c5noc(=O)[nH]5)CC3)[C@H]4C)c2=O)ccc1P(C)(C)=O` [Compound 3], the EC50 turned out to be 0.07 nM.
Regarding `CNc1cc(-n2ccn(-c3c4c(nn3-c3ccc(F)c(C5CC5)c3)CCN(C(=O)c3cc5cc(C6CCOCC6)ccn5c3C3(c5noc(=O)[nH]5)CC3)[C@H]4C)c2=O)ccc1P(C)(C)=O` [Compound 4], the EC50 amounted to 0.085 nM.
With `CCP(=O)(CC)c1ccc(-n2ccn(-c3c4c(nn3-c3ccc(F)c(C5CC5)c3)CCN(C(=O)c3cc5cc(C6CCOCC6)ccn5c3C3(c5noc(=O)[nH]5)CC3)[C@H]4C)c2=O)cc1NC` [Compound 5] the figure was 0.11 nM; with `[2H]C([2H])([2H])Nc1cc(-n2ccn(-c3c4c(nn3-c3ccc(F)c(C5CC5)c3)CCN(C(=O)c3cc5cc(C6CCOCC6)ccn5c3C3(c5noc(=O)[nH]5)CC3)[C@H]4C)c2=O)ccc1P(C)(C)=O` [Compound 6], 0.089 nM.
`CCP(=O)(CC)c1ccc(-n2ccn(-c3c4c(nn3-c3cc(C)c(F)c(C)c3)CCN(C(=O)c3sc5cc(C6CCOCC6)ccc5c3C3(c5noc(=O)[nH]5)CC3)[C@H]4C)c2=O)cc1NC` [Compound 18, 3-(1-{2-[(4S)-3-{3-[4-(diethylphosphoryl)-3-(methylamino)phenyl]-2-oxo-2,3-dihydro-1H-imidazol-1-yl}-2-(4-fluoro-3,5-dimethylphenyl)-4-methyl-2H,4H,5H,6H,7H-pyrazolo[4,3-c]pyridine-5-carbonyl]-6-(oxan-4-yl)-1-benzothiophen-3-yl}cyclopropyl)-4,5-dihydro-1,2,4-oxadiazol-5-one] registered an EC50 of 0.061 nM.
The value for `CCP(=O)(CC)c1ccc(-n2ccn(-c3c4c(nn3-c3cc(C)c(F)c(C)c3)CCN(C(=O)c3oc5cc(C6CCOCC6)ccc5c3C3(c5noc(=O)[nH]5)CC3)[C@H]4C)c2=O)cc1NC` [Compound 19, 3-(1-{2-[(4S)-3-{3-[4-(diethylphosphoryl)-3-(methylamino)phenyl]-2-oxo-2,3-dihydro-1H-imidazol-1-yl}-2-(4-fluoro-3,5-dimethylphenyl)-4-methyl-2H,4H,5H,6H,7H-pyrazolo[4,3-c]pyridine-5-carbonyl]-6-(oxan-4-yl)-1-benzofuran-3-yl}cyclopropyl)-4,5-dihydro-1,2,4-oxadiazol-5-one] was 0.049 nM.
`CCP(=O)(CC)c1ccc(-n2ccn(-c3c4c(nn3-c3cc(C)c(F)c(C)c3)CCN(C(=O)c3cn5cc(C6CCOCC6)ccc5c3C3(c5noc(=O)[nH]5)CC3)[C@H]4C)c2=O)cc1NC` [Compound 20, 3-(1-{2-[(4S)-3-{3-[4-(diethylphosphoryl)-3-(methylamino)phenyl]-2-oxo-2,3-dihydro-1H-imidazol-1-yl}-2-(4-fluoro-3,5-dimethylphenyl)-4-methyl-2H,4H,5H,6H,7H-pyrazolo[4,3-c]pyridine-5-carbonyl]-6-(oxan-4-yl)indolizin-1-yl}cyclopropyl)-4,5-dihydro-1,2,4-oxadiazol-5-one] came in with an EC50 of 0.03 nM.
The value for `CCP(=O)(CC)c1ccc(-n2ccn(-c3c4c(nn3-c3cc(C)c(F)c(C)c3)CCN(C(=O)c3cc5cc(C6CCOCC6)ccn5c3C3(c5noc(=O)[nH]5)CC3)[C@H]4C)c2=O)cc1NC` [Compound 21, 3-(1-{2-[(4S)-3-{3-[4-(diethylphosphoryl)-3-(methylamino)phenyl]-2-oxo-2,3-dihydro-1H-imidazol-1-yl}-2-(4-fluoro-3,5-dimethylphenyl)-4-methyl-2H,4H,5H,6H,7H-pyrazolo[4,3-c]pyridine-5-carbonyl]-7-(oxan-4-yl)indolizin-3-yl}cyclopropyl)-4,5-dihydro-1,2,4-oxadiazol-5-one] was 0.02 nM; that for `CCP(=O)(CC)c1ccc(-n2ccn(-c3c4c(nn3-c3cc(C)c(F)c(C)c3)CCN(C(=O)c3nn5cc(C6CCOCC6)cnc5c3C3(c5noc(=O)[nH]5)CC3)[C@H]4C)c2=O)cc1NC` [Compound 24] was 0.18 nM.
With `CCP(=O)(CC)c1ccc(-n2ccn(-c3c4c(nn3-c3cc(C)c(F)c(C)c3)CCN(C(=O)c3cc5cc(C6CCOCC6)cnn5c3C3(c5noc(=O)[nH]5)CC3)[C@H]4C)c2=O)cc1NC` [Compound 26, 3-(1-{6-[(4S)-3-{3-[4-(diethylphosphoryl)-3-(methylamino)phenyl]-2-oxo-2,3-dihydro-1H-imidazol-1-yl}-2-(4-fluoro-3,5-dimethylphenyl)-4-methyl-2H,4H,5H,6H,7H-pyrazolo[4,3-c]pyridine-5-carbonyl]-3-(oxan-4-yl)pyrrolo[1,2-b]pyridazin-7-yl}cyclopropyl)-4,5-dihydro-1,2,4-oxadiazol-5-one] the figure was 0.014 nM.
In the case of `CCP(=O)(CC)c1ccc(-n2ccn(-c3c4c(nn3-c3cc(C)c(F)c(C)c3)CCN(C(=O)c3[nH]c5cc(C6CCOCC6)ccc5c3C3(c5noc(=O)[nH]5)CC3)[C@H]4C)c2=O)cc1NC` [Compound 28, 3-(1-{2-[(4S)-3-{3-[4-(diethylphosphoryl)-3-(methylamino)phenyl]-2-oxo-2,3-dihydro-1H-imidazol-1-yl}-2-(4-fluoro-3,5-dimethylphenyl)-4-methyl-2H,4H,5H,6H,7H-pyrazolo[4,3-c]pyridine-5-carbonyl]-6-(oxan-4-yl)-1H-indol-3-yl}cyclopropyl)-2,5-dihydro-1,2,4-oxadiazol-5-one], it took 0.033 nM to reach a half-maximal effect (EC50).
With `CCP(=O)(CC)c1ccc(-n2ccn(-c3c(-c4cc(C)c(F)c(C)c4)nn4c3C(C)N(C(=O)c3nc5cc(C6CCOCC6)ccn5c3C3(c5noc(=O)[nH]5)CC3)CC4)c2=O)cc1NC` (stereo not shown) [Compound 29] the figure was 29 nM.
Molecule `CCP(=O)(CC)c1ccc(-n2ccn(-c3c(-c4cc(C)c(F)c(C)c4)nn4c3C(C)N(C(=O)c3sc5cc(C6CCOCC6)ccc5c3C3(c5noc(=O)[nH]5)CC3)CC4)c2=O)cc1NC` (stereo not shown) [Compound 30] returned an EC50 of 0.32 nM.
